Legend:
Assay in all cases: Test D pre-/postemergence controlled growth environment herbicide test
Assay type in all cases: in vivo
Details in all cases: scale 0 to 100
[1] = test system: deadnettle (henbit deadnettle, Lamium amplexicaule)
Method in brief: (§1)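 Herbicidal effect, both preemergence (silt loam soil) and postemergence (1- to 4-leaf plants, peat-based medium), was scored 14–21 d post-treatment on a 0–100 control scale relative to untreated plants; applications used a non-phytotoxic solvent formulation with surfactant.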

[2] = test system: barley, spring (spring barley, Hordeum vulgare)
Method in brief: as §1

[3] = test system: speedwell (bird's-eye speedwell, Veronica persica)
Method in brief: as §1

[4] = test system: barley, winter (winter barley, Hordeum vulgare)
Method in brief: as §1

[5] = test system: field poppy (Papaver rhoeas)
Method in brief: as §1

[6] = test system: buckwheat, wild (wild buckwheat, Polygonum convolvulus)
Method in brief: as §1

[7] = test system: downy bromegrass (Bromus tectorum)
Method in brief: as §1

[8] = test system: chamomile (scentless chamomile, Matricaria inodora)
Method in brief: as §1

[9] = test system: bluegrass (annual bluegrass, Poa annua)
Method in brief: as §1

[10] = test system: radish, wild (wild radish, Raphanus raphanistrum)
Method in brief: as §1

[11] = test system: canarygrass (Phalaris minor)
Method in brief: as §1

SMILES: Cc1cc(=O)n(-c2ccc(C(F)(F)F)cc2)nc1Cc1ccnc(C(F)(F)F)c1 [Compound 2, 5-methyl-2-[4-(trifluoromethyl)phenyl]-6-[[2-(trifluoromethyl)-4-pyridinyl]methyl]-3(2H)-pyridazinone]
- Plant response rating ([1]; Postemergence, 31 g ai/ha): 40
- Plant response rating ([1]; Postemergence, 62 g ai/ha): 40
- Plant response rating ([1]; Postemergence, 125 g ai/ha): 70
- Plant response rating ([1]; Postemergence, 250 g ai/ha): 75
- Plant response rating ([1]; Postemergence, 500 g ai/ha): 90
- Plant response rating ([1]; Preemergence, 31 g ai/ha): 100
- Plant response rating ([1]; Preemergence, 62 g ai/ha): 100
- Plant response rating ([1]; Preemergence, 125 g ai/ha): 100
- Plant response rating ([1]; Preemergence, 250 g ai/ha): 100
- Plant response rating ([1]; Preemergence, 500 g ai/ha): 100
- Plant response rating ([2]; Postemergence, 31 g ai/ha): 10
- Plant response rating ([2]; Postemergence, 62 g ai/ha): 10
- Plant response rating ([2]; Postemergence, 125 g ai/ha): 10
- Plant response rating ([2]; Postemergence, 250 g ai/ha): 15
- Plant response rating ([2]; Postemergence, 500 g ai/ha): 25
- Plant response rating ([2]; Preemergence, 31 g ai/ha): 0
- Plant response rating ([2]; Preemergence, 62 g ai/ha): 0
- Plant response rating ([2]; Preemergence, 125 g ai/ha): 0
- Plant response rating ([2]; Preemergence, 250 g ai/ha): 25
- Plant response rating ([2]; Preemergence, 500 g ai/ha): 50
- Plant response rating ([3]; Postemergence, 31 g ai/ha): 100
- Plant response rating ([3]; Postemergence, 62 g ai/ha): 100
- Plant response rating ([3]; Postemergence, 125 g ai/ha): 100
- Plant response rating ([3]; Postemergence, 250 g ai/ha): 100
- Plant response rating ([3]; Postemergence, 500 g ai/ha): 100
- Plant response rating ([3]; Preemergence, 31 g ai/ha): 100
- Plant response rating ([3]; Preemergence, 62 g ai/ha): 100
- Plant response rating ([3]; Preemergence, 125 g ai/ha): 100
- Plant response rating ([3]; Preemergence, 250 g ai/ha): 100
- Plant response rating ([3]; Preemergence, 500 g ai/ha): 100
- Plant response rating ([4]; Postemergence, 31 g ai/ha): 10
- Plant response rating ([4]; Postemergence, 62 g ai/ha): 15
- Plant response rating ([4]; Postemergence, 125 g ai/ha): 15
- Plant response rating ([4]; Postemergence, 250 g ai/ha): 20
- Plant response rating ([4]; Postemergence, 500 g ai/ha): 25
- Plant response rating ([4]; Preemergence, 31 g ai/ha): 0
- Plant response rating ([4]; Preemergence, 62 g ai/ha): 0
- Plant response rating ([4]; Preemergence, 125 g ai/ha): 30
- Plant response rating ([4]; Preemergence, 250 g ai/ha): 30
- Plant response rating ([4]; Preemergence, 500 g ai/ha): 50
- Plant response rating ([5]; Postemergence, 31 g ai/ha): 25
- Plant response rating ([5]; Postemergence, 62 g ai/ha): 75
- Plant response rating ([5]; Postemergence, 125 g ai/ha): 100
- Plant response rating ([5]; Postemergence, 250 g ai/ha): 80
- Plant response rating ([5]; Postemergence, 500 g ai/ha): 100
- Plant response rating ([5]; Preemergence, 31 g ai/ha): 100
- Plant response rating ([5]; Preemergence, 62 g ai/ha): 100
- Plant response rating ([5]; Preemergence, 125 g ai/ha): 100
- Plant response rating ([5]; Preemergence, 250 g ai/ha): 100
- Plant response rating ([5]; Preemergence, 500 g ai/ha): 100
- Plant response rating ([6]; Postemergence, 31 g ai/ha): 20
- Plant response rating ([6]; Postemergence, 62 g ai/ha): 30
- Plant response rating ([6]; Postemergence, 125 g ai/ha): 50
- Plant response rating ([6]; Postemergence, 250 g ai/ha): 70
- Plant response rating ([6]; Postemergence, 500 g ai/ha): 80
- Plant response rating ([6]; Preemergence, 31 g ai/ha): 0
- Plant response rating ([6]; Preemergence, 62 g ai/ha): 20
- Plant response rating ([6]; Preemergence, 125 g ai/ha): 25
- Plant response rating ([6]; Preemergence, 250 g ai/ha): 100
- Plant response rating ([6]; Preemergence, 500 g ai/ha): 100
- Plant response rating ([7]; Postemergence, 31 g ai/ha): 10
- Plant response rating ([7]; Postemergence, 62 g ai/ha): 30
- Plant response rating ([7]; Postemergence, 125 g ai/ha): 30
- Plant response rating ([7]; Postemergence, 250 g ai/ha): 40
- Plant response rating ([7]; Postemergence, 500 g ai/ha): 45
- Plant response rating ([7]; Preemergence, 31 g ai/ha): 0
- Plant response rating ([7]; Preemergence, 62 g ai/ha): 0
- Plant response rating ([7]; Preemergence, 125 g ai/ha): 0
- Plant response rating ([7]; Preemergence, 250 g ai/ha): 20
- Plant response rating ([7]; Preemergence, 500 g ai/ha): 25
- Plant response rating ([8]; Postemergence, 31 g ai/ha): 30
- Plant response rating ([8]; Postemergence, 62 g ai/ha): 30
- Plant response rating ([8]; Postemergence, 125 g ai/ha): 30
- Plant response rating ([8]; Postemergence, 250 g ai/ha): 40
- Plant response rating ([8]; Postemergence, 500 g ai/ha): 60
- Plant response rating ([8]; Preemergence, 31 g ai/ha): 0
- Plant response rating ([8]; Preemergence, 62 g ai/ha): 0
- Plant response rating ([8]; Preemergence, 125 g ai/ha): 25
- Plant response rating ([8]; Preemergence, 250 g ai/ha): 50
- Plant response rating ([8]; Preemergence, 500 g ai/ha): 90
- Plant response rating ([9]; Postemergence, 31 g ai/ha): 10
- Plant response rating ([9]; Postemergence, 62 g ai/ha): 15
- Plant response rating ([9]; Postemergence, 125 g ai/ha): 20
- Plant response rating ([9]; Postemergence, 250 g ai/ha): 20
- Plant response rating ([9]; Postemergence, 500 g ai/ha): 30
- Plant response rating ([9]; Preemergence, 31 g ai/ha): 0
- Plant response rating ([9]; Preemergence, 62 g ai/ha): 0
- Plant response rating ([9]; Preemergence, 125 g ai/ha): 10
- Plant response rating ([9]; Preemergence, 250 g ai/ha): 30
- Plant response rating ([9]; Preemergence, 500 g ai/ha): 100
- Plant response rating ([10]; Postemergence, 31 g ai/ha): 20
- Plant response rating ([10]; Postemergence, 62 g ai/ha): 20
- Plant response rating ([10]; Postemergence, 125 g ai/ha): 90
- Plant response rating ([10]; Postemergence, 250 g ai/ha): 100
- Plant response rating ([10]; Postemergence, 500 g ai/ha): 100
- Plant response rating ([10]; Preemergence, 31 g ai/ha): 100
- Plant response rating ([10]; Preemergence, 62 g ai/ha): 100
- Plant response rating ([10]; Preemergence, 125 g ai/ha): 100
- Plant response rating ([10]; Preemergence, 250 g ai/ha): 100
- Plant response rating ([10]; Preemergence, 500 g ai/ha): 100
- Plant response rating ([11]; Postemergence, 31 g ai/ha): 20
- Plant response rating ([11]; Postemergence, 62 g ai/ha): 20
- Plant response rating ([11]; Postemergence, 125 g ai/ha): 20
- Plant response rating ([11]; Postemergence, 250 g ai/ha): 20
- Plant response rating ([11]; Postemergence, 500 g ai/ha): 25
- Plant response rating ([11]; Preemergence, 31 g ai/ha): 0
- Plant response rating ([11]; Preemergence, 62 g ai/ha): 25
- Plant response rating ([11]; Preemergence, 125 g ai/ha): 40
- Plant response rating ([11]; Preemergence, 250 g ai/ha): 40
- Plant response rating ([11]; Preemergence, 500 g ai/ha): 85
